This note sets out measurements from publication PMC9482650, “Quantitative fragmentomics allow affinity mapping of interactomes” (Nature Communications, 2022).

Where two headings read alike, the source gives them in different places. Ends that are not written are not given here.

Holding throughout (assay type): binding
The target in one experiment is MAGI1_2 PDZ (Homo sapiens, UniProt Q96QZ7). Description: biochemical.
The target in a further experiment is DLG4_2 PDZ (Homo sapiens, UniProt P78352). Put plainly: Holdup assay.
DLG4_2 PDZ, sequence (P78352 160-246 limits assumed): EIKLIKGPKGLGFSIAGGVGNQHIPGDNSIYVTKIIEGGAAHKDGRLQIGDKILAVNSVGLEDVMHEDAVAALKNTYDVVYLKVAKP
A further experiment deals with T1, SNTB1 PDZ (Homo sapiens, UniProt Q13884).
T1 sequence (Q13884 112-195 limits assumed): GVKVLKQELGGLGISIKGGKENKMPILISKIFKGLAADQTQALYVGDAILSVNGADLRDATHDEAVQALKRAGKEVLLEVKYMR
Description: Holdup assay.

The target of the next experiment is LRRC7 PDZ (Homo sapiens, UniProt Q96NW7). Put plainly: Holdup assay.
LRRC7 PDZ, sequence (Q96NW7 1450-1535 limits assumed): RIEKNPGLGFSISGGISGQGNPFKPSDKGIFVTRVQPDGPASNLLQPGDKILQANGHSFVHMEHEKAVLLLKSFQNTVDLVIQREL
The next experiment concerns the target T2, PTPN3 PDZ (Homo sapiens, UniProt P26045).
T2 sequence (P26045 510-582 limits assumed): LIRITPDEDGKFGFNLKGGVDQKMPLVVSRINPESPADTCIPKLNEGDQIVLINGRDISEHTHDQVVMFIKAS
Description: Holdup assay.

The next experiment has as its target T3, SNTG1 PDZ (Homo sapiens, UniProt Q9NSN8).
T3 sequence (Q9NSN8 57-140 limits assumed): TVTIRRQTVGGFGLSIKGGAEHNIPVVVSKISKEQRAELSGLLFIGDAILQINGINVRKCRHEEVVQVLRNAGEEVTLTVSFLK
Put plainly: Holdup assay.

The next experiment concerns the target LNX1_4 PDZ (Homo sapiens, UniProt Q8TBB1). Description: Holdup assay.
A further experiment addresses T4, SYNJ2BP PDZ (Homo sapiens, UniProt P57105).
T4 sequence (P57105 13-100 limits assumed): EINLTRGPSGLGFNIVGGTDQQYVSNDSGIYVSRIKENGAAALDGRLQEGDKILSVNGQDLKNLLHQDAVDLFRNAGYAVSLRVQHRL
Description: Holdup assay.

The target in another experiment is T5, PDZRN3_1 PDZ (Homo sapiens, UniProt Q9UPQ7).
T5 sequence (Q9UPQ7 249-339 limits assumed): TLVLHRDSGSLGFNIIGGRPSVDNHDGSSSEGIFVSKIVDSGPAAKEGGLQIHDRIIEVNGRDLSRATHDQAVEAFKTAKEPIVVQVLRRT
Description: Holdup assay.

The target of another experiment is T6, SNTA1 PDZ (Homo sapiens, UniProt Q13424).
T6 sequence (Q13424 87-170 limits assumed): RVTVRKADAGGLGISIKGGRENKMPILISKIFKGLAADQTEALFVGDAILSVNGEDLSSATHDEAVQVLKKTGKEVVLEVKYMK
Description: Holdup assay.

The target of the next experiment is T7, MAST2 PDZ (Homo sapiens, UniProt Q6P0Q8).
T7 sequence (Q6P0Q8 1104-1192 limits assumed): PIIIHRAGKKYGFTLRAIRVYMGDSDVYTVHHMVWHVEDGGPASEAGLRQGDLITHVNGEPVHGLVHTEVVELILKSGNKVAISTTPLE
Put plainly: biochemical. As to conditions: composite holdup affinity; 0.00=below quantification threshold; read-out: COMP pKd (converted).

Another experiment addresses NHERF2_1 PDZ (Homo sapiens, UniProt Q15599). Put plainly: Holdup assay. The following applies: sheet PPI_convert; read-out: affinity to PDZ NHERF2_1 (converted).
For another experiment, the target named is T8, PDZD7_3 PDZ (Homo sapiens, UniProt Q9H5P4).
T8 sequence (Q9H5P4 862-934 limits assumed): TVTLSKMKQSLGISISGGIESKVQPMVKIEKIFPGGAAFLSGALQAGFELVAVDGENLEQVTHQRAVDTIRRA
Put plainly: Holdup assay.

Another experiment has as its target SCRIB_1 PDZ (Homo sapiens, UniProt Q14160). Description: Holdup assay.
The next experiment deals with FRMPD2_1 PDZ (Homo sapiens, UniProt Q68DX3). Put plainly: Holdup assay.
FRMPD2_1 PDZ, sequence (Q68DX3 775-861 limits assumed): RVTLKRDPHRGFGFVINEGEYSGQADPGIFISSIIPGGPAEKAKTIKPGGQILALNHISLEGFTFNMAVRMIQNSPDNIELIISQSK
Another experiment addresses CNKSR3 PDZ (Homo sapiens, UniProt Q6P9H4). Description: Holdup assay. The source says: Supplement 41467_2022_33018_MOESM4_ESM.xlsx, sheet "PPI_convert" | column: CNKSR3
The target of a further experiment is GIPC1 PDZ (Homo sapiens, UniProt O14908). Description: Holdup assay. The source says: Supplement 41467_2022_33018_MOESM4_ESM.xlsx, sheet "PPI_convert" | column: GIPC1
GIPC1 PDZ, sequence (O14908 133-213 limits assumed): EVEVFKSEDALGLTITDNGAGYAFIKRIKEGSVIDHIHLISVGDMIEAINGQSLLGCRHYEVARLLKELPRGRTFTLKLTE
The next experiment concerns the target T9, PDZD2_2 PDZ (Homo sapiens, UniProt O15018).
T9 sequence (O15018 334-419 limits assumed): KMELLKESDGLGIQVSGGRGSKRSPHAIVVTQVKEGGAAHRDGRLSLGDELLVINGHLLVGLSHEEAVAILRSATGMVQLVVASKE
Put plainly: Holdup assay.

Another experiment addresses MPDZ_4 PDZ (Homo sapiens, UniProt O75970). Description: Holdup assay. As to conditions: sheet PPI_convert; read-out: affinity to PDZ MPDZ_4 (converted). An excerpt: Supplement 41467_2022_33018_MOESM4_ESM.xlsx, sheet "PPI_convert" | column: MPDZ_4
The next experiment addresses NOS1 PDZ (Homo sapiens, UniProt P29475). Put plainly: Holdup assay.
The target of another experiment is MAGI2_2 PDZ (Homo sapiens, UniProt Q86UL8). Description: Holdup assay.
MAGI2_2 PDZ, sequence (Q86UL8 426-510 limits assumed): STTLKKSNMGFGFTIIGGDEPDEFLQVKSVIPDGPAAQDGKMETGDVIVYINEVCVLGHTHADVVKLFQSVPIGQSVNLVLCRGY
The next experiment concerns the target DLG2_1 PDZ (Homo sapiens, UniProt Q15700). Put plainly: Holdup assay.
Another experiment has as its target LIN7A PDZ (Homo sapiens, UniProt O14910). Put plainly: Holdup assay.
Another experiment deals with TJP2_1 PDZ (Homo sapiens, UniProt Q9UDY2). Put plainly: Holdup assay.
TJP2_1 PDZ, sequence (Q9UDY2 33-120 limits assumed): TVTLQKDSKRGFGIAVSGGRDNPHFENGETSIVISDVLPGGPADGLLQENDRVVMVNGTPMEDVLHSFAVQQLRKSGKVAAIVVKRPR
The next experiment addresses RHPN1 PDZ (Homo sapiens, UniProt Q8TCX5). Put plainly: Holdup assay.
Another experiment addresses MAST1 PDZ (Homo sapiens, UniProt Q9Y2H9). Description: Holdup assay.
A further experiment addresses MAGI2_3 PDZ (Homo sapiens, UniProt Q86UL8). Put plainly: Holdup assay.
[1] abbreviates: composite holdup affinity, 0.00=below quantification threshold, read-out: COMP pKd (converted).

MAGI1_2 PDZ, sequence (Q96QZ7 472-554 limits assumed): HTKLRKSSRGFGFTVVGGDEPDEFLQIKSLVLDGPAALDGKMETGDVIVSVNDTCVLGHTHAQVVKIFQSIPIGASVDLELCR
NOS1 PDZ, sequence (P29475 17-99 limits assumed): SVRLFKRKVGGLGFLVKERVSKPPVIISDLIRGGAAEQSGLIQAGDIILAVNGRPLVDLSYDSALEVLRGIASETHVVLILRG
SCRIB_1 PDZ, sequence (Q14160 728-815 limits assumed): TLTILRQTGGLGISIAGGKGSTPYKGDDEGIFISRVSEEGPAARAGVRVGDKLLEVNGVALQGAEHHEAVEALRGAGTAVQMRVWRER
LIN7A PDZ, sequence (O14910 108-190 limits assumed): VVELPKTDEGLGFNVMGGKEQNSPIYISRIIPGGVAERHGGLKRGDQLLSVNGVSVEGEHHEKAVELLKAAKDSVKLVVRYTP
RHPN1 PDZ, sequence (Q8TCX5 513-592 limits assumed): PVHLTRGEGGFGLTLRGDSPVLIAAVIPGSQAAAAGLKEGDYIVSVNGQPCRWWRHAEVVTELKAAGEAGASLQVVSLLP
CNKSR3 PDZ, sequence (Q6P9H4 211-293 limits assumed): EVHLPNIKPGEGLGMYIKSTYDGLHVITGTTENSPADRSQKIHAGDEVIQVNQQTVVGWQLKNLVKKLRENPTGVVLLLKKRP
MAST1 PDZ, sequence (Q9Y2H9 967-1055 limits assumed): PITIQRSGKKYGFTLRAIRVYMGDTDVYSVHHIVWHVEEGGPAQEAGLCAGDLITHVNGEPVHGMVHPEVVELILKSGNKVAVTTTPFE
DLG2_1 PDZ, sequence (Q15700 98-184): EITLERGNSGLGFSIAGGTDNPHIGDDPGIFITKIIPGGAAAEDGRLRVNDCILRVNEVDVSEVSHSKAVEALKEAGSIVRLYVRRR
LNX1_4 PDZ, sequence (Q8TBB1 638-724 limits assumed): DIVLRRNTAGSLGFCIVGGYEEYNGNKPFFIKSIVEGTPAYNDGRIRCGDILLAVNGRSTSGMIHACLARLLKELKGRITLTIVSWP
MAGI2_3 PDZ, sequence (Q86UL8 605-683 limits assumed): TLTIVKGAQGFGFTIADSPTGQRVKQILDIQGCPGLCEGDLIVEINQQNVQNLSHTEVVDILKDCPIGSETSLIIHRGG
MPDZ_4 PDZ, sequence (O75970 553-634 limits assumed): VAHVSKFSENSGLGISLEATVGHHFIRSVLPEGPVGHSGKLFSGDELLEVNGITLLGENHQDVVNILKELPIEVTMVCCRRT
NHERF2_1 PDZ, sequence (Q15599 11-90 limits assumed): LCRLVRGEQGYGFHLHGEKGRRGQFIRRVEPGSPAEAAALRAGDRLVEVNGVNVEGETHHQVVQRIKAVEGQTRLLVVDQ

Regarding SKPTRRETEV [HPV35-E6], the Kd is 7.41 µM on MAGI1_2 PDZ (setting [1]); 3.09 µM on DLG4_2 PDZ (setting [1]); 20.9 µM on SNTB1 PDZ (setting [1]); 257 µM on LRRC7 PDZ (setting [1]); 11.7 µM at PTPN3 PDZ (setting [1]); 49 µM on SNTG1 PDZ (setting [1]). Further, the Kd at LNX1_4 PDZ (sheet PPI_convert, read-out: affinity to PDZ LNX1_4 (converted)) is 324 µM; on SYNJ2BP PDZ (setting [1]), 2.04 µM; on PDZRN3_1 PDZ (setting [1]) it was 12.9 µM; at SNTA1 PDZ (setting [1]) it was 14.1 µM; at MAST2 PDZ, 8.13 µM; on NHERF2_1 PDZ, 170 µM. In addition, the Kd at PDZD7_3 PDZ (setting [1]) was 50.1 µM; on SCRIB_1 PDZ (setting [1]), 27.5 µM; on FRMPD2_1 PDZ (setting [1]), 324 µM; on CNKSR3 PDZ (sheet PPI_convert, read-out: affinity to PDZ CNKSR3 (converted)), 269 µM; at GIPC1 PDZ (sheet PPI_convert, read-out: affinity to PDZ GIPC1 (converted)), 20.4 µM; at PDZD2_2 PDZ (setting [1]), 166 µM. The Kd is 282 µM on MPDZ_4 PDZ; 182 µM at NOS1 PDZ (setting [1]); 11.7 µM at MAGI2_2 PDZ (setting [1]); 12.3 µM at DLG2_1 PDZ (sheet PPI_convert, read-out: affinity to PDZ DLG2_1 (converted)).
For the molecule `CC(C)C[C@H](NC(=O)[C@@H](N)CCCNC(=N)N)C(=O)N[C@@H](CCC(N)=O)C(=O)N[C@@H](CCCNC(=N)N)C(=O)N[C@@H](CCCNC(=N)N)C(=O)N[C@@H](CCCNC(=N)N)C(=O)N[C@@H](CCC(=O)O)C(=O)N[C@H](C(=O)N[C@@H](CCC(N)=O)C(=O)N[C@H](C(=O)O)C(C)C)[C@@H](C)O` [HPV18-E6], the Kd on MAGI1_2 PDZ was 1.07 µM; at DLG4_2 PDZ, 3.47 µM; on SNTB1 PDZ, 5.89 µM; on LRRC7 PDZ, 724 µM; on PTPN3 PDZ it was 32.4 µM; at LIN7A PDZ it was 398 µM. Moreover, the Kd was 117 µM at SNTG1 PDZ; 93.3 µM at LNX1_4 PDZ; 129 µM on TJP2_1 PDZ; 4.47 µM on SYNJ2BP PDZ; 15.1 µM at PDZRN3_1 PDZ; 20 µM on SNTA1 PDZ. The Kd is 16.6 µM on MAST2 PDZ; 234 µM on RHPN1 PDZ; 105 µM at PDZD7_3 PDZ; 55 µM at SCRIB_1 PDZ; 79.4 µM at FRMPD2_1 PDZ; 79.4 µM at CNKSR3 PDZ. Moreover, the Kd is 36.3 µM on GIPC1 PDZ; 437 µM on PDZD2_2 PDZ; 195 µM on NOS1 PDZ; 6.92 µM on MAGI2_2 PDZ; 4.68 µM on MAST1 PDZ; 7.76 µM on DLG2_1 PDZ. This molecule had a Kd at MAGI2_3 PDZ of 70.8 µM.
As to SRRPRTETQV [HPV31-E6], the Kd is 2.88 µM on MAGI1_2 PDZ (setting [1]); 4.37 µM at DLG4_2 PDZ (setting [1]); 70.8 µM at SNTB1 PDZ (setting [1]); 21.9 µM at PTPN3 PDZ (setting [1]); 309 µM at LIN7A PDZ (setting [1]); 58.9 µM at SNTG1 PDZ (setting [1]). Also, the Kd on TJP2_1 PDZ (setting [1]) is 219 µM; at SYNJ2BP PDZ (setting [1]), 3.89 µM; at PDZRN3_1 PDZ (setting [1]), 81.3 µM; at SNTA1 PDZ (setting [1]), 51.3 µM; at MAST2 PDZ, 5.89 µM; on RHPN1 PDZ (setting [1]), 182 µM. The Kd on PDZD7_3 PDZ (setting [1]) is 195 µM; on SCRIB_1 PDZ (setting [1]), 25.1 µM; on PDZD2_2 PDZ (setting [1]), 200 µM; at NOS1 PDZ (setting [1]), 123 µM; at MAGI2_2 PDZ (setting [1]), 0.417 µM; at MAST1 PDZ (setting [1]), 38 µM. At MAGI2_3 PDZ (setting [1]), the Kd is 79.4 µM.
